How the values were obtained:
Format in all cases: cell-based
[1] = test system: L. donovani HU3 strain in mouse peritoneal macrophages; assay: Proliferation of L. donovani in mouse peritoneal macrophages (SybrGreen, high-content imaging); conditions: Leishmania donovani, Peritoneal macrophage, 120 h; infected mouse peritoneal macrophages, 5 days; read-out: L. donavani Macrophage EC50
Excerpt: The activity of a compound according to the present invention for inhibition of parasitemai can be assessed by the parasite proliferation assay. The assay measures the increase in the parasite number in the assayed plate well using a DNA intercalating dye, SYBR Green I® dye (INVITROGEN) to stain Leishmania cell nuclei. It is understood that the assays illustrate the invention without in any way limiting the scope of the invention.
L. donovani HU3 strain is propagated by infecting BALBc mice through tail vein injection with 10^7 Leishmania parasites. Infected mice are allowed to develop infection during 9-11 weeks post-infection. During this time, the parasites accumulate in the infected mouse spleens to large numbers, and the infected mice serve as the source of parasites for the in vitro measurement of compound efficacies. To assay a compound for anti-leishmanial activity, peritoneal macrophages isolated from non-infected BALBc mice are seeded into 384-well plates at density 2×10^4 macrophages per well in 25 mL of medium (RPMI1640, 10% fetal serum albumin, 10 mM HEPES, 1 mM sodium pyruvate, 1% Pen/Strep). Subsequently, the seeded plates are placed into an incubator set to maintain 37° C. temperature and atmosphere with 5% CO2. The next day, Leishmania parasites are isolated from the spleens of mice infected for 9-11 weeks and 4×10^5 isolated parasites in […] of the above media are added to each plate well. Plates are then returned into incubators and infection is allowed to proceed for 24 hours. After the infection of macrophages is completed, […] of compounds of the invention in the above medium, which also contains 5% DMSO, are added to plate wells containing infected macrophages. At the same time control compounds (miltefosine and amphotericin B) and DMSO are added to plates to serve as the positive and negative controls, respectively. After the compound addition, the plates are returned into incubator and cells infected with parasites are cultured for 5 days. At the end of cultivation, […] of 8% paraformaldehyde is added to plate wells and incubated for 15 min at room temperature. Following the incubation, the paraformaldehyde from plate wells is aspirated, and […] of PBS containing 0.2% Triton X-100 is added to wells. After 15 min incubation, the solution is aspirated from wells again, and replaced with SybrGreen Dye solution in PBS (1:125,000 dilution). Infected cells are imaged with Evotec Opera high-content microscope, and the number of parasites in well is determined by counting parasite nuclei visualized by staining with SybrGreen dye. The percentage inhibition of 50%, EC50, is calculated for each compound.
The inhibitory efficacy of the compounds of the invention against proliferation of L. donovani in mouse peritoneal macrophages is provided in Table I.

[2] = test system: Leishmania donovani axenic amastigote parasites; assay: Assay for Leishmania proliferation in vitro (axenic amastigotes, Cell TiterGlo); conditions: 48 h, 2 day incubation, read-out: L. donovani amastigotes EC50
Description: Leishmania donovani axenic amastigote parasites are grown at 37° C., 5% CO2 in media made of RPMI 1640, 4 mM L-glutamine, 20% heat inactivated FBS, 100 units/ml of penicillin and 100 μg/ml of streptomycin, 23 μM Folic Acid, 100 μM Adenosine, 22 mM D-glucose, 25 mM MES. The pH of media is adjusted to 5.5 at 37° C. using HCl. 20 μL of media is first dispensed into 384 well plates and […] of the compounds of invention in DMSO are added to the plate wells. At the same time control compounds and DMSO are added to plates to serve as the positive and negative controls, respectively. 40 μL of parasite culture (9600 parasites) are then added to the plate wells. The plates are then placed into incubators. After 2 day incubation, 20 μL of Cell TiterGlo (Promega) is added to the plate wells. The luminescence signal of each well is measured using the Envision reader (Perkin Elmer). The percentage inhibition of 50%, EC50, is calculated for each of the compounds.

[3] = test system: Trypanosoma cruzi amastigotes cultured in 3T3 fibroblast cells; assay: Assay for proliferation of kinetoplastid parasite Trypanosoma cruzi (beta-galactosidase/CPRG readout); conditions: NIH3T3, 144 h, Tulahuen strain in 3T3 cells, 6 day incubation, read-out: T cruzi EC50
Excerpt: Compounds of the invention can be assayed to measure their capacity to inhibit proliferation of kinetoplastid parasite Trypanosoma cruzi. The screening procedure is for identifying compounds with inhibitor activity against Trypanosoma cruzi amastigotes cultured in 3T3 fibroblast cells. The assay is done using the mammalian stage (amastigotes) of T. cruzi that replicates in the intracellular space of host cells. The host cells are initially infected with the culture-derived trypomastigotes that rapidly invade and then divide as amastigotes. The protocol uses the Tulahuen strain of T. cruzi that has been engineered to express the E. coli beta-galactosidase gene (Lac-Z) (Antimicr. Agents Chemoth. 40:2592, 1996). This allows for a colorimetric readout by using the substrate CPRG and an absorbance plate reader.
3T3 fibroblast cells are re-suspended in RPMI-1640 medium without phenol red medium supplemented with 10% FBS (heat inactivated), 100 μg/ml penicillin, and 100 μg/ml streptomycin. Forty μL of suspension (1,000 cells) is dispensed into 384-well plates and incubated overnight at 37° C. temperature and in atmosphere containing 5% CO2. The following day, 100 nL of compounds of the invention in DMSO are added to plate wells containing 3T3 cells. At the same time control compounds (benznidazole and nifurtimox) and DMSO are added to plates to serve as the positive and negative controls, respectively. After that, 10 μL of media containing 10,000 T. cruzi trypomastigotes are added to each plate well and plates are placed back into incubators. After 6 day incubation, 10 μL of reagent solution (0.6 mM CPRG, 0.6% NP-40 in PBS) is added to plates and incubated at room temperature for 2 hours. Absorbance is then measured on SpectraMax Gemini fluorimeter to determine relative number of T. cruzi cells present in each plate well. The percentage inhibition of 50%, EC50, is calculated for each compound.

| SMILES | EC50 [1] | EC50 [2] | EC50 [3] |
| --- | --- | --- | --- |
| O=C(Nc1cnc2nc(-c3cc(NC(=O)c4ccco4)ccc3Cl)[nH]c2c1)OCCF [Example 53, 2-fluoroethyl N-{2-[2-chloro-5-(furan-2-amido)phenyl]-1H-imidazo[4,5-b]pyridin-6-yl}carbamate] | 1.74 µM | 1.31 µM | 3.2 µM |
| CC(C)(N)COC(=O)Nc1cnc2nc(-c3cc(NC(=O)c4ccco4)ccc3Cl)[nH]c2c1 [Example 23, 2-amino-2-methylpropyl N-{2-[2-chloro-5-(furan-2-amido)phenyl]-1H-imidazo[4,5-b]pyridin-6-yl}carbamate] | 34.1 µM | 21 µM |  |
| CC(C)OC(=O)Nc1cnc2nc(-c3cc(NC(=O)N4CCCC4)ccc3Cl)oc2c1 [Example 75, propan-2-yl N-(2-{2-chloro-5-[(pyrrolidin-1-yl)carbonylamino]phenyl}-[1,3]oxazolo[4,5-b]pyridin-6-yl)carbamate] | 0.166 µM | 0.132 µM |  |
| CC(C)(N)CNc1cnc2nc(-c3cc(NC(=O)c4ccco4)ccc3Cl)[nH]c2c1 [Example 31, N-(3-{6-[(2-amino-2-methylpropyl)amino]-1H-imidazo[4,5-b]pyridin-2-yl}-4-chlorophenyl)furan-2-carboxamide] | > 50 µM | > 25 µM |  |
| CN(C)c1cnc2nc(-c3cc(NC(=O)c4ccco4)ccc3Cl)[nH]c2c1 [Example 13, N-{4-chloro-3-[6-(dimethylamino)-1H-imidazo[4,5-b]pyridin-2-yl]phenyl}furan-2-carboxamide] | 8.6 µM | 2.35 µM |  |
| CC(C)S(=O)(=O)Nc1cnc2nc(-c3cc(NC(=O)c4ccc(C#N)o4)ccc3Cl)[nH]c2c1 [Example 60, N-{4-chloro-3-[6-(propane-2-sulfonamido)-1H-imidazo[4,5-b]pyridin-2-yl]phenyl}-5-cyanofuran-2-carboxamide] | 17.9 µM | 2.43 µM |  |
| Cc1ccc(C(=O)Nc2ccc(Cl)c(-c3nc4ncc(NC(=O)OC(C)C)cc4[nH]3)c2)o1 [Example 17, propan-2-yl N-{2-[2-chloro-5-(5-methylfuran-2-amido)phenyl]-1H-imidazo[4,5-b]pyridin-6-yl}carbamate] | 13.3 µM | 7.6 µM |  |
| Cc1ccc(C(=O)Nc2ccc(Cl)c(-c3nc4ncc(N)cc4[nH]3)c2)o1 [Example 29, N-(3-{6-amino-1H-imidazo[4,5-b]pyridin-2-yl}-4-chlorophenyl)-5-methylfuran-2-carboxamide] | > 50 µM | > 25 µM |  |
| CN(C)/C=N/c1cnc2nc(-c3cc(NC(=O)c4ccco4)ccc3Cl)[nH]c2c1 [Example 50, N-(4-chloro-3-{6-[(E)-[(dimethylamino)methylidene]amino]-1H-imidazo[4,5-b]pyridin-2-yl}phenyl)furan-2-carboxamide] | 5.1 µM | 6 µM |  |
| Cc1cnc(C(=O)Nc2cnc3nc(-c4cc(NC(=O)c5ccco5)ccc4Cl)[nH]c3c2)s1 [Example 1, N-{2-[2-chloro-5-(furan-2-amido)phenyl]-1H-imidazo[4,5-b]pyridin-6-yl}-5-methyl-1,3-thiazole-2-carboxamide] | 0.72 µM | 0.13 µM |  |
| O=C(Nc1ccc(Cl)c(-c2nc3ncc(NC(=O)C4(C(F)(F)F)CCC4)cc3[nH]2)c1)c1ccco1 [Example 37, N-[4-chloro-3-(6-{[1-(trifluoromethyl)cyclobutane]amido}-1H-imidazo[4,5-b]pyridin-2-yl)phenyl]furan-2-carboxamide] | 0.53 µM | 0.85 µM |  |
| NCCCNc1cnc2nc(-c3cc(NC(=O)c4ccc(F)o4)ccc3Cl)[nH]c2c1 [Example 69, N-(3-{6-[(3-aminopropyl)amino]-1H-imidazo[4,5-b]pyridin-2-yl}-4-chlorophenyl)-5-fluorofuran-2-carboxamide] | > 50 µM | > 25 µM |  |
| O=C(Nc1ccc(Cl)c(-c2nc3ncc(NCC4CCNCC4)cc3[nH]2)c1)c1ccco1 [Example 27, N-(4-chloro-3-{6-[(piperidin-4-ylmethyl)amino]-1H-imidazo[4,5-b]pyridin-2-yl}phenyl)furan-2-carboxamide] | > 50 µM | > 25 µM |  |
| CC(C)S(=O)(=O)Nc1cnc2nc(-c3cccc(NC(=O)c4ccc(F)o4)c3)[nH]c2c1 [Example 77, 5-fluoro-N-{3-[6-(propane-2-sulfonamido)-1H-imidazo[4,5-b]pyridin-2-yl]phenyl}furan-2-carboxamide] | 22.9 µM | > 25 µM |  |
| CC(C)OC(=O)Nc1ccc(Cl)c(-c2nc3ncc(NC(=O)OC(C)C)cc3[nH]2)c1 [Example 4, propan-2-yl N-[2-(2-chloro-5-{[(propan-2-yloxy)carbonyl]amino}phenyl)-1H-imidazo[4,5-b]pyridin-6-yl]carbamate] | 0.83 µM | 0.44 µM |  |
| NC(=O)C1(C(=O)Nc2cnc3nc(-c4cc(NC(=O)c5ccco5)ccc4Cl)[nH]c3c2)CC1 [Example 64, 1-N-{2-[2-chloro-5-(furan-2-amido)phenyl]-1H-imidazo[4,5-b]pyridin-6-yl}cyclopropane-1,1-dicarboxamide] | > 50 µM | 21.1 µM |  |
| O=CNc1cnc2nc(-c3cc(NC(=O)c4ccc(F)o4)ccc3Cl)[nH]c2c1 [Example 74, N-(4-chloro-3-{6-formamido-1H-imidazo[4,5-b]pyridin-2-yl}phenyl)-5-fluorofuran-2-carboxamide] | > 50 µM | 10.8 µM |  |
| CN(C)CC(=O)Nc1cnc2nc(-c3cc(NC(=O)c4ccco4)ccc3Cl)[nH]c2c1 [Example 40, N-(4-chloro-3-{6-[2-(dimethylamino)acetamido]-1H-imidazo[4,5-b]pyridin-2-yl}phenyl)furan-2-carboxamide] | 8.5 µM | > 25 µM |  |
| CC(C)(C)OC(=O)N1CC[C@H](CC(=O)Nc2cnc3nc(-c4cc(NC(=O)c5ccco5)ccc4Cl)[nH]c3c2)C1 [Example 28] | > 50 µM | > 25 µM |  |
| CN(C)S(=O)(=O)Nc1cnc2nc(-c3cc(NC(=O)c4ccco4)ccc3Cl)[nH]c2c1 [Example 51, N-(4-chloro-3-{6-[(dimethylsulfamoyl)amino]-1H-imidazo[4,5-b]pyridin-2-yl}phenyl)furan-2-carboxamide] | 8.8 µM | > 25 µM |  |
| CC(C)OC(=O)Nc1cnc2nc(-c3cc(NC(=O)c4ccco4)ccc3Cl)oc2c1 [Example 76, propan-2-yl N-(2-{2-chloro-5-[(furan-2-yl)carbonylamino]phenyl}-[1,3]oxazolo[4,5-b]pyridin-6-yl)carbamate] | 0.45 µM | 0.26 µM |  |
